Four compounds from patent US20180202388A1, “PISTON FOR AN INTERNAL COMBUSTION ENGINE AND METHOD FOR PRODUCING THE PISTON FOR AN INTERNAL COMBUSTION ENGINE” (FEDERAL-MOGUL NURNBERG GMBH, priority 2015, published 2018) can be followed below.

Entries after “also recorded” stand apart in the source; their conditions may differ.

In experiment [1] the test system is human kinases (456 kinases). In words: KINOMEscan in vitro kinase profiling (primary screen binding interactions, % Ctrl, S-score). The following applies: for interaction with the 456 kinases tested: screened at 1 μM; for S-score, type S1 / S-score, type S10 / Number of hits/number of kinases, S10 / Number of hits/number of kinases, S1 / Kinase targets, S10 / Kinase targets, S1: tested at 1 μM; for S-score, type S1: S(1)=(number of kinases with % Ctrl<1)/(number of kinases tested); for S-score, type S10: S(10)=(number of kinases with % Ctrl <10)/(number of kinases tested); for Number of hits/number of kinases, S10: hits with % Ctrl <10; for Number of hits/number of kinases, S1: hits with % Ctrl<1; for Kinase targets, S10: kinases with % Ctrl <10; for Kinase targets, S1: kinases with % Ctrl<1. As to the method:
An in vitro kinase profiling was conducted in order to evidence the absence of protein kinase inhibition by the compounds of the invention.
DiscoveRx (Ambit Biosciences) has developed a high-throughput system (KINOMEscan™) for screening of compounds against large numbers of human kinases (456 kinases).
The compounds of the invention were screened at the concentration of 1 μM, and results for primary screen binding interactions were reported as percent control (% Ctrl), where lower numbers indicate stronger hits. DMSO is used as a negative control (100% Ctrl) while a high affinity compound is used as a positive control (0% Ctrl). % Ctrl is calculated as follow: […]
Selectivity Score or S-score is a quantitative measure of compound selectivity. It is calculated by dividing the number of kinases that compounds bind to by the total number of distinct kinases tested, excluding mutant variants. S(10)=(number of kinases with % Ctrl <10)/(number of kinases tested), S(1)=(number of kinases with % Ctrl<1)/(number of kinases tested).

A further experiment concerns HL60. As to the kind of experiment: CellTiter-Blue cell-based survival/proliferation assay, HL60 (leukemia). The following applies: Homo sapiens, HL-60; HL60 cells, 48 h; read-out: Anti-tumoral activity (measured IC50), Leukemia HL60. How it is done: (§1) Compounds of formula (I) were tested against a panel of about 34 human tumor cell lines representing 17 cancer type, namely leukemia (represented by 1 cell line), lymphoma (4 cell lines), myeloma (1 cell line), colorectal (2 cell lines), head and neck (3 cell lines), lung (3 cell lines), melanoma (2 cell lines), pancreas (2 cell lines), prostate (2 cell lines), ovary (2 cell lines) breast (2 cell lines), kidney (2 cell lines), stomach (2 cell lines), liver (2 cell lines), glioblastoma (2 cell lines), osteosarcoma (1 cell line), Ewing Sarcoma (1 cell line).
(§2) CellTiter-Blue cell-based survival/proliferation assay (Promega G8080) was performed on tumor cell lines. A total of 1.10^4 cells/well/50 μl were seeded in a 96-wells plate. Treatment was initiated by addition of a 2× drug solution of 1/10 serial dilutions ranging from 0 to 10 μM. Cells were grown for 48 h at 37° C. and then incubated with 10 μl/well of Promega CellTiter-Bleue reagent for 4 h at 37° C. The amount of resorufin dye formed was quantified by its fluorescence emission at 590 nm using a scanning multiwell spectrophotometer (OPTIMA, BMG labtech, France). A blank well without cells was used as a background control for the spectrophotometer.
A general note: The colour change of resazurin is a common sign of viable cells or microbes.

A further experiment concerns OPM2. As to the kind of experiment: CellTiter-Blue cell-based survival/proliferation assay, OPM2 (myeloma). Conditions: Homo sapiens, OPM-2; OPM2 cells, 48 h; read-out: Anti-tumoral activity (measured IC50), Myeloma OPM2. How it is done: as §1, §2
The next experiment relates to A498. In words: CellTiter-Blue cell-based survival/proliferation assay, A498. The following applies: Homo sapiens, Kidney, 48 h. How it is done:
as §1, §2

The test system of another experiment is A549. In words: CellTiter-Blue cell-based survival/proliferation assay, A549. Conditions: Homo sapiens, Lung, 48 h. As to the method:
as §1, §2

Another experiment deals with ACHN. As to the kind of experiment: CellTiter-Blue cell-based survival/proliferation assay, ACHN. The following applies: Homo sapiens, Kidney, 48 h. As to the method: as §1, §2
In the next experiment the test system is AGS. As to the kind of experiment: CellTiter-Blue cell-based survival/proliferation assay, AGS. Conditions: Homo sapiens, Stomach, 48 h. As to the method: as §1, §2
A further experiment concerns BT20. In words: CellTiter-Blue cell-based survival/proliferation assay, BT20. Conditions: Homo sapiens, BT-20, Breast, 48 h. As to the method: as §1, §2
In another experiment the test system is BXPC3. In words: CellTiter-Blue cell-based survival/proliferation assay, BXPC3. Conditions: Homo sapiens, BXPC-3, Pancreas, 48 h. How it is done:
as §1, §2

A further experiment concerns CALU6. As to the kind of experiment: CellTiter-Blue cell-based survival/proliferation assay, CALU6. The following applies: Homo sapiens, Calu-6, Lung, 48 h. How it is done: as §1, §2
The test system of a further experiment is CLS354. As to the kind of experiment: CellTiter-Blue cell-based survival/proliferation assay, CLS354. The following applies: Homo sapiens, CLS-354; Head & Neck; CLS354_4; 48 h. As to the method: as §1, §2
A further experiment deals with DLD1. As to the kind of experiment: CellTiter-Blue cell-based survival/proliferation assay, DLD1. The following applies: Homo sapiens, DLD-1; Colorectal; DLD_1; 48 h. How it is done: as §1, §2
The subject of another experiment is DU145. As to the kind of experiment: CellTiter-Blue cell-based survival/proliferation assay, DU145. The following applies: Homo sapiens, DU-145, Prostate, 48 h. How it is done:
as §1, §2

The next experiment concerns H1299. In words: CellTiter-Blue cell-based survival/proliferation assay, H1299. The following applies: Homo sapiens, NCI-H1299, Lung, 48 h. As to the method:
as §1, §2

For a further experiment, the system named is HCT116. In words: CellTiter-Blue cell-based survival/proliferation assay, HCT116. The following applies: Homo sapiens, HCT-116, Colorectal, 48 h. How it is done:
as §1, §2

A further experiment concerns HEP2. In words: CellTiter-Blue cell-based survival/proliferation assay, HEP2. The following applies: Homo sapiens, HEp-2, Head & Neck, 48 h. How it is done:
as §1, §2

A further experiment deals with HEPG2. In words: CellTiter-Blue cell-based survival/proliferation assay, HEPG2. Conditions: Homo sapiens, Liver, 48 h. As to the method: as §1, §2
A further experiment deals with HGC27. In words: CellTiter-Blue cell-based survival/proliferation assay, HGC27. Conditions: Homo sapiens, HGC-27, Stomach, 48 h. How it is done: as §1, §2
The next experiment deals with MDAMB231. In words: CellTiter-Blue cell-based survival/proliferation assay, MDAMB231. The following applies: Homo sapiens, MDA-MB-231, Breast, 48 h. How it is done:
as §1, §2

The test system of another experiment is MESSA. In words: CellTiter-Blue cell-based survival/proliferation assay, MESSA. Conditions: Homo sapiens, MES-SA, Ovary, 48 h. As to the method:
as §1, §2

In another experiment the test system is PANC1. In words: CellTiter-Blue cell-based survival/proliferation assay, PANC1. Conditions: Homo sapiens, PANC-1; Pancreas; PANC_1; 48 h. How it is done:
as §1, §2

The next experiment concerns PC3. In words: CellTiter-Blue cell-based survival/proliferation assay, PC3. The following applies: Homo sapiens, PC-3, Prostate, 48 h. As to the method:
as §1, §2

For a further experiment, the system named is PLCPRF5. In words: CellTiter-Blue cell-based survival/proliferation assay, PLCPRF5. The following applies: Homo sapiens, PLC-PRF-5; Liver; PLC_PRF5; 48 h. How it is done: as §1, §2
The next experiment concerns SW579. As to the kind of experiment: CellTiter-Blue cell-based survival/proliferation assay, SW579. Conditions: Homo sapiens, Head & Neck, 48 h. As to the method: as §1, §2
In another experiment the test system is TOV112D. In words: CellTiter-Blue cell-based survival/proliferation assay, TOV112D. Conditions: Homo sapiens, Ovary, 48 h. How it is done:
as §1, §2

As for `CCOCc1ccc(C)c(Nc2nc(-c3ccc(N4CCNC4=O)cc3)cs2)c1` [Example 003, 1-{4-[2-(5-Ethoxymethyl-(2-methyl-phenylamino))-thiazol-4-yl]-phenyl}-imidazolidin-2-one], in [1], the “interaction with the 456 kinases tested” value was “do not efficiently interact”; the “S-score, type S1” value turned out to be 0.002; the “S-score, type S10” value is listed as 0.009; the “Number of hits/number of kinases, S10” value is 4/456. In addition, in experiment [1], the “Number of hits/number of kinases, S1” value was 1/456; the “Kinase targets, S10” value is given as “KIT, KIT V559D,; also recorded: KIT L576P”; the “Kinase targets, S1” value is “PDGFRB”.

Turning to `CCOCc1ccc(C)c(Nc2ncc(-c3ccc(N4CCNC4=O)cc3)o2)c1` [Example 006, 1-{4-[2-(5-Ethoxymethyl-(2-methyl-phenylamino))-oxazol-5-yl]-phenyl}-imidazolidin-2-one], in experiment [1], the “interaction with the 456 kinases tested” value is reported as “do not efficiently interact”; the “S-score, type S1” value was 0.000; the “S-score, type S10” value stood at 0.000; the “Number of hits/number of kinases, S10” value is 0/456. Moreover, in experiment [1], the “Number of hits/number of kinases, S1” value is given as 0/456 and the “Kinase targets, S1” value was “None”.

As for `CCOCc1ccc(C)c(Nc2ncc(-c3ccc(-n4cccn4)cc3)o2)c1` [Example 033, (5-Ethoxymethyl-2-methyl-phenyl)-[5-(4-pyrazol-1-yl-phenyl)-oxazol-2-yl]-amine], in experiment [1], the “interaction with the 456 kinases tested” value was “do not efficiently interact”; the “S-score, type S1” value is recorded as 0.000; the “S-score, type S10” value came to 0.002; the “Number of hits/number of kinases, S10” value is 1/456. Besides, in experiment [1], the “Number of hits/number of kinases, S1” value was 0/456 and the “Kinase targets, S10” value is recorded as “CDKL3”.

A word on the IC50: it is the midpoint of a concentration-inhibition curve. Turning to `CCOCc1ccc(C)c(Nc2nc(-c3ccc(-n4cccn4)nc3)cs2)c1` [Example 062, 4-(6-(1H-pyrazol-1-yl)pyridin-3-yl)-N-(5-(ethoxymethyl)-2-methylphenyl)thiazol-2-amine], the IC50 in the experiment on HL60 is 0.1 to 0.5 µM; in the experiment on OPM2, 0.1 to 0.5 µM; in the experiment on A498, above 1 µM; with A549 it was above 1 µM; with ACHN, above 1 µM; in the experiment on AGS, above 1 µM. Also, the IC50 in the experiment with BT20 is above 1 µM; in the experiment on BXPC3 it was above 1 µM; in the experiment with CALU6, above 1 µM; with CLS354 it was 0.5 to 1 µM; in the experiment with DLD1, above 1 µM; in the experiment on DU145, above 1 µM. Further, the 50% inhibitory concentration (IC50) in the experiment with H1299 was above 1 µM; in the experiment with HCT116, above 1 µM; in the experiment on HEP2 it was 0.5 to 1 µM; with HEPG2 it was above 1 µM; with HGC27, above 1 µM; with MDAMB231, above 1 µM. For the same compound, the IC50 was above 1 µM in the experiment with MESSA; above 1 µM in the experiment on PANC1; above 1 µM in the experiment with PC3; above 1 µM with PLCPRF5; above 1 µM in the experiment with SW579; at most 0.1 µM in the experiment on TOV112D.
